Test [1] deals with T1, SPT-ORMDL3 complex (Homo sapiens, UniProt O15269+O15270+Q8N138).
T1 construct: full-length subunits (ORMDL3-FL) co-expressed in HEK293F; N-terminal Flag tag on a subunit; purified in GDN; dimer of heterotetrameric protomers; with Serine palmitoyltransferase small subunit A
In words: cryo-EM structure; LC-MS/MS of co-purified ceramides. The test is classed as binding. The following applies: endogenous co-purified lipid; C24-ceramide fitted to a ceramide-like density, chain length not uniquely defined.

Test [2] concerns the target T2, SPT-ORMDL3 complex (Homo sapiens, UniProt O15269+O15270+Q8N138, Q8N138:F63P).
T2 construct: full-length subunits (ORMDL3-FL) co-expressed in HEK293F; N-terminal Flag tag on a subunit; purified in GDN; dimer of heterotetrameric protomers; with Serine palmitoyltransferase small subunit A
In words: DTNB CoA-release assay. The test is classed as biochemical. The following applies: 10 mM L-serine, 100 μM palmitoyl-CoA, 25 μM PLP, pH 7.5, 37 °C.

The target in test [3] is T1, SPT-ORMDL3 complex. Briefly: DTNB CoA-release assay; cryo-EM structure. The test is classed as biochemical.
The target of test [4] is T3, SPT-ORMDL2 complex (Homo sapiens, UniProt O15269+O15270+Q53FV1).
T3 construct: full-length subunits co-expressed in HEK293F; N-terminal Flag tag on a subunit; purified in GDN; with Serine palmitoyltransferase small subunit A
T3 sequence (Q53FV1 whole entry, one chain of several): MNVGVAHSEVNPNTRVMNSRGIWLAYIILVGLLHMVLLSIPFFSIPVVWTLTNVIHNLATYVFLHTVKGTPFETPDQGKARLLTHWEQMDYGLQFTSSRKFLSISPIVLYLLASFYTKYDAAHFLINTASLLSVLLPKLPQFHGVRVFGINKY
T3 sequence (O15270 whole entry, one chain of several): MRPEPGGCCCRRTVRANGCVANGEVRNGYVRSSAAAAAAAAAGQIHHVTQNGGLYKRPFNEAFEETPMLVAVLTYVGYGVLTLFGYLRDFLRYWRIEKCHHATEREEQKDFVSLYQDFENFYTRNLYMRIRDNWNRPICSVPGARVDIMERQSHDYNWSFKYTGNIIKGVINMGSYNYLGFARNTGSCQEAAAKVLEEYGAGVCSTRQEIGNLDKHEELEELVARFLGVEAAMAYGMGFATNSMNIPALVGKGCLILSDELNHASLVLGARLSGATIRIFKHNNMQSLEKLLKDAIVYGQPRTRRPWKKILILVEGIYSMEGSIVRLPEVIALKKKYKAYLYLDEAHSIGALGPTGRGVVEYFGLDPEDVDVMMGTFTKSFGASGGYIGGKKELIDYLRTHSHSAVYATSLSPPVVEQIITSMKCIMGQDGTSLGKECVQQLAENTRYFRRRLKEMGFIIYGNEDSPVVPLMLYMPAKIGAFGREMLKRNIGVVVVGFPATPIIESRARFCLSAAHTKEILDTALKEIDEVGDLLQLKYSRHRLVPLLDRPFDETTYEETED
T3 sequence (O15269 whole entry, one chain of several): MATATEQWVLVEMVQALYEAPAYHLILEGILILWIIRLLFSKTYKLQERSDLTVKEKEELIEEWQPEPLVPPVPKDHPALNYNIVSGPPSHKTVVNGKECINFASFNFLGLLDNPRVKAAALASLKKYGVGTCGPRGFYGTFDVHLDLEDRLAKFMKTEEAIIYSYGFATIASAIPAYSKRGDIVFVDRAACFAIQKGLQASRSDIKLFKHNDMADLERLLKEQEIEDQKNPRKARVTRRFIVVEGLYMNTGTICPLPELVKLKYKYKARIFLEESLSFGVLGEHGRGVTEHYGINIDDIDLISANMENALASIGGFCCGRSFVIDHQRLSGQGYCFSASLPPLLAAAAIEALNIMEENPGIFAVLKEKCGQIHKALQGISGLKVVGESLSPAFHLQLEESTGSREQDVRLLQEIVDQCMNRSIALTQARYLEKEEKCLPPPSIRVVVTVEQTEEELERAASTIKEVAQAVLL
In words: DTNB CoA-release assay. The format is biochemical.

The target in test [5] is T4, SPT-ORMDL3 complex (Homo sapiens, UniProt O15269+O15270+Q8N138, Q8N138:N13A).
T4 construct: full-length subunits (ORMDL3-FL) co-expressed in HEK293F; N-terminal Flag tag on a subunit; purified in GDN; dimer of heterotetrameric protomers; with Serine palmitoyltransferase small subunit A
T4 sequence (Q8N138 whole entry N13A, one chain of several): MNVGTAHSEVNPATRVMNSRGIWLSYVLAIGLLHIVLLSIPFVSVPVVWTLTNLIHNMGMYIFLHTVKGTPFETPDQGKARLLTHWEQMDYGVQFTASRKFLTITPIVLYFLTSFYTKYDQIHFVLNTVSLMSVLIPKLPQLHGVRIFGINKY
T4 sequence (O15270 whole entry, one chain of several): as the sequence (O15270 whole entry, one chain of several) above
T4 sequence (O15269 whole entry, one chain of several): as the sequence (O15269 whole entry, one chain of several) above
Briefly: DTNB CoA-release assay. The format is biochemical. The following applies: 10 mM L-serine, 100 μM palmitoyl-CoA, 25 μM PLP, pH 7.5, 37 °C.

Test [6] concerns the target T5, SPT-ORMDL3 complex (Homo sapiens, UniProt O15269+O15270+Q8N138, O15269:DEL40-41).
T5 construct: full-length subunits (ORMDL3-FL) co-expressed in HEK293F; N-terminal Flag tag on a subunit; purified in GDN; dimer of heterotetrameric protomers; with Serine palmitoyltransferase small subunit A
In words: DTNB CoA-release assay. The format is biochemical. Conditions: 10 mM L-serine, 100 μM palmitoyl-CoA, 25 μM PLP, pH 7.5, 37 °C.

For test [7], the target named is T6, SPT-ORMDL3 complex (Homo sapiens, UniProt O15269+O15270+Q8N138, Q8N138:H85A).
T6 construct: full-length subunits (ORMDL3-FL) co-expressed in HEK293F; N-terminal Flag tag on a subunit; purified in GDN; dimer of heterotetrameric protomers; with Serine palmitoyltransferase small subunit A
T6 sequence (Q8N138 whole entry H85A, one chain of several): as the sequence (Q8N138 whole entry N13A, one chain of several) above, with A13N, H85A counted along it
T6 sequence (O15270 whole entry, one chain of several): as the sequence (O15270 whole entry, one chain of several) above
T6 sequence (O15269 whole entry, one chain of several): as the sequence (O15269 whole entry, one chain of several) above
In words: DTNB CoA-release assay. The format is biochemical. The text has this: (§1) DTNB CoA-release assay on SPT-ORMDL3 complex | severely impaired for the former two variants, but largely sustained for the latter two variants

The target in test [8] is T7, SPT-ORMDL3 complex (Homo sapiens, UniProt O15269+O15270+Q8N138, O15270:Y122A).
T7 construct: full-length subunits (ORMDL3-FL) co-expressed in HEK293F; N-terminal Flag tag on a subunit; purified in GDN; dimer of heterotetrameric protomers; with Serine palmitoyltransferase small subunit A
T7 sequence (O15270 whole entry Y122A, one chain of several): as the sequence (O15270 whole entry, one chain of several) above, with Y122A counted along it
T7 sequence (O15269 whole entry, one chain of several): as the sequence (O15269 whole entry, one chain of several) above
In words: DTNB CoA-release assay. The test is classed as biochemical.
Excerpt: as §1

In test [9] the target is T8, SPT-ORMDL1 complex (Homo sapiens, UniProt O15269+O15270+Q9P0S3).
T8 construct: full-length subunits co-expressed in HEK293F; N-terminal Flag tag on a subunit; purified in GDN; with Serine palmitoyltransferase small subunit A
T8 sequence (Q9P0S3 whole entry, one chain of several): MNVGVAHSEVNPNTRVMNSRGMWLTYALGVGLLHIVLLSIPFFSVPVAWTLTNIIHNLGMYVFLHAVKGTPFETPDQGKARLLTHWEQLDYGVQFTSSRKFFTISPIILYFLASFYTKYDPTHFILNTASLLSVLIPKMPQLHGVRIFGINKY
T8 sequence (O15270 whole entry, one chain of several): as the sequence (O15270 whole entry, one chain of several) above
T8 sequence (O15269 whole entry, one chain of several): as the sequence (O15269 whole entry, one chain of several) above
In words: DTNB CoA-release assay. The format is biochemical.

For test [10], the target named is T9, SPT-ORMDL3 complex (Homo sapiens, UniProt O15269+O15270+Q8N138, O15269:DEL39-39).
T9 construct: full-length subunits (ORMDL3-FL) co-expressed in HEK293F; N-terminal Flag tag on a subunit; purified in GDN; dimer of heterotetrameric protomers; with Serine palmitoyltransferase small subunit A
T9 sequence (O15270 whole entry, stated change not applied, one chain of several): as the sequence (O15270 whole entry, one chain of several) above
T9 sequence (O15269 with tags, fused parts or gaps DEL39-39, one chain of several): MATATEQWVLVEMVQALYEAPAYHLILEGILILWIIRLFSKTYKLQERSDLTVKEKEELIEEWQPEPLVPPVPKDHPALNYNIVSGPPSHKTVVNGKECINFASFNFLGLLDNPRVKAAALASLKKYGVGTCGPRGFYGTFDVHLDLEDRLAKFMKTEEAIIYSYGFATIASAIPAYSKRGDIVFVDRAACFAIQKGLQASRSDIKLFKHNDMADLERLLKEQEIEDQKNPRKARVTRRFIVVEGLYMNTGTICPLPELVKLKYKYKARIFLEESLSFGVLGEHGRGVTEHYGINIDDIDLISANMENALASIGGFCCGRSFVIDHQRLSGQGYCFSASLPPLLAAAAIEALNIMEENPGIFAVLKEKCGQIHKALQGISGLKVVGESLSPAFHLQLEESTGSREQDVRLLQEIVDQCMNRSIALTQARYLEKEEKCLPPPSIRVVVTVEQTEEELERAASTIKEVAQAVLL
In words: DTNB CoA-release assay. The test is classed as biochemical. Conditions: 10 mM L-serine, 100 μM palmitoyl-CoA, 25 μM PLP, pH 7.5, 37 °C.

Test [11] addresses T10, ORMDL3 (full-length, wild type) (human, UniProt Q8N138 1-153).
T10 construct: ORMDL3, human, codon-optimized full-length cDNA in pCAG (new ORMDL3-FL plasmid without the 14 extra nucleotides upstream of the ORF); cDNAs were cloned 'with an N-terminal Flag tag or without a tag'; also called ORMDL3-FL; WT ORMDL3; source: HEK293F, transiently co-transfected with the SPT subunits, purified as a complex (anti-Flag resin, SEC, GDN)
T10 sequence (looked up): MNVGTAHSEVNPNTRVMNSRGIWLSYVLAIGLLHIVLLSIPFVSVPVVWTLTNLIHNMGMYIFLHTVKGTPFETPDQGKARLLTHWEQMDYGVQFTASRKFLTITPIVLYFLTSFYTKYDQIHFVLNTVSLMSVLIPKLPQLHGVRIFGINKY
In words: cryo-EM structure; single-particle cryo-EM of co-expressed and co-purified SPT-ORMDL3 complexes at ~18 mg/ml in 25 mM HEPES pH 7.5, 150 mM NaCl, 0.01% GDN; apo, or WT preincubated with 1 mM C6-ceramide on ice for 1 hr. Conditions: both partners purified.

T1 sequence (O15270 whole entry, one chain of several): as the sequence (O15270 whole entry, one chain of several) above
T1 sequence (O15269 whole entry, one chain of several): as the sequence (O15269 whole entry, one chain of several) above
T5 sequence (O15270 whole entry, stated change not applied, one chain of several): as the sequence (O15270 whole entry, one chain of several) above
T5 sequence (O15269 with tags, fused parts or gaps DEL40-41, one chain of several): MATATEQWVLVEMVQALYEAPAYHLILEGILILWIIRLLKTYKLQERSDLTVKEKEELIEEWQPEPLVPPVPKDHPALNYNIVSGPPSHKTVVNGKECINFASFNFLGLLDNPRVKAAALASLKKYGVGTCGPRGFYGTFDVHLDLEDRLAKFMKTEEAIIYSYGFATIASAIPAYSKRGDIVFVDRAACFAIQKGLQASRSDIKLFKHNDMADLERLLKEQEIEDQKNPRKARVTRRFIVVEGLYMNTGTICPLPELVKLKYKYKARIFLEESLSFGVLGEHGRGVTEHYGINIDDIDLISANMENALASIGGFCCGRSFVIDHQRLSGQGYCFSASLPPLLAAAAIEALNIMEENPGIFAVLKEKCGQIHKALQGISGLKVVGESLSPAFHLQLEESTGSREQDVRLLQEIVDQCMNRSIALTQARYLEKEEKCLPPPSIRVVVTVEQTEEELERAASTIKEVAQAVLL
T2 sequence (Q8N138 whole entry F63P, one chain of several): as the sequence (Q8N138 whole entry N13A, one chain of several) above, with A13N, F63P counted along it
T2 sequence (O15270 whole entry, one chain of several): as the sequence (O15270 whole entry, one chain of several) above
T2 sequence (O15269 whole entry, one chain of several): as the sequence (O15269 whole entry, one chain of several) above

Regarding `CCCCCCCCCCCCC/C=C/[C@@H](O)[C@H](CO)NC(=O)CCCCCCCCCCCCCCCCCCCCCCC` [C24-ceramide], the “cryo-EM structure; LC-MS/MS of co-purified ceramides” value in [1] is “ceramide-like density in the apo SPT-ORMDL3 structure, which could be better fitted with C24-ceramide”.

Consider `CCCCCCCCCCCCC/C=C/[C@@H](O)[C@H](CO)NC(=O)CCCCC` [C6-ceramide], for which the inhibition curve entry in [2] is recorded as “responses to C6-ceramide have been severely impaired for the former two variants”; in test [5] it was “responses to C6-ceramide have been severely impaired for the former two variants”; in [6], “inhibition effect of C6-ceramide on all these SPTLC1 ALS variants was attenuated”; in [10] it was “inhibition effect of C6-ceramide on all these SPTLC1 ALS variants was attenuated”. The IC50 (in general, the point on the concentration scale where inhibition reaches its midpoint) came to 2200 nM in [3]; 980 nM in test [4]; 964 nM in [7]; 6980 nM in test [8]; 4070 nM in [9].

B1: SPTssa (natural protein, human, UniProt Q969W0 1-71, looked up)
chain: MAGMALARAWKQMSWFYYQYLLVTALYMLEPWERTVFNSMLVSIVGMALYTGYVFMPQHIMAILHYFEIVQ
notes: serine palmitoyltransferase small subunit A (SPTssa), human, codon-optimized full-length cDNA; also called small SPT subunit; source: HEK293F, transiently co-transfected with the other subunits, purified as a complex (anti-Flag resin, SEC, GDN)
Take B1: the binding result in test [11] is listed as “binds”.

Values taken from PMC10261145, “Ceramide sensing by human SPT-ORMDL complex for establishing sphingolipid homeostasis” (Nature Communications, 2023).
